The test system of data set [1] is NUGC-3 (stomach). The data set is described as follows: SRB cytotoxicity assay, NUGC-3. The class given is cell-based, human. Conditions: for GI50: SRB assay, 48 hours. The method, then:
(§1) A cytotoxicity test was evaluated using sulforhodamine B (SRB) assay on six human cancer cell lines. Human cancer cell lines, ACHN (kidney), NCI-H23 (lung), PC-3 (prostate), NUGC-3 (stomach), MDA-MB-231 (breast), and HCT-15 (colon) were purchased from American Type Culture Collection (ATCC). Cells were cultured in a RPMI 1640 medium added with 10% fetal bovine serum (FBS) at 37° C. in a 5% CO2 incubator. The cells (8×10^3 cells/well) were dispensed into a 96-well plate, cultured for one day, and then treated with Compounds 1-8 dissolved in 0.1% DMSO, (R)-(6-(1-((2-aminobenzoyl)oxy)ethyl)phenazine-1-carboxylic acid as Compound 9, and adriamycin as a positive control group. The cells were cultured for 48 hours, fixed with 50% trichloroacetic acid ([…]) and stained with 0.4% surfohodamine B dissolved in 1% acetic acid. Non-stained cells were removed by washing with 1% acetic acid, and cells bound to a protein were extracted with 10 mM Tris base (pH 10.5) to measure the optical density. Absorbance was measured at 540 nm using a microplate reader, and GI50 values were calculated using GraphPad Prism 4.0.
For orientation: Sulforhodamine B stains cellular protein and so reports cell mass.

Data set [2] relates to NCI-H23 (lung). Nature of the data set: SRB cytotoxicity assay, NCI-H23. The data set is classed as cell-based, human. How it is done:
as §1

For data set [3], the system named is MDA-MB-231 (breast). The data set is described as follows: SRB cytotoxicity assay, MDA-MB-231. The class given is cell-based, human. How it is done:
as §1

The test system of data set [4] is PC-3 (prostate). The data set is described as follows: SRB cytotoxicity assay, PC-3. The class given is cell-based, human. Conditions: 48 hours. How it is done: as §1
The subject of data set [5] is HCT-15 (colon). Nature of the data set: SRB cytotoxicity assay, HCT-15. The class given is cell-based, human. The method, then: as §1
In data set [6] the test system is ACHN (kidney). The data set is described as follows: SRB cytotoxicity assay, ACHN. The data set is classed as cell-based, human. The following applies: 48 hours. The method, then:
as §1

Data set [7] relates to LPS-induced BV-2 microglia. Nature of the data set: NO generation inhibition in LPS-induced BV-2 microglia (Griess reagent). The following applies: compound 1 hour then LPS 200 ng/mL for 24 hours, nitrite by Griess reagent, read-out: IC50 (μM), NO generation inhibitory activity by activated microglia. The class given is cell-based. The method, then:
(§2) NO generation to confirm anti-brain neuroinflammatory activity was evaluated by measuring a nitrite concentration in the medium using a Griess reagent, and the cell viability was evaluated using MTT assay. Briefly, BV-2 microglia were cultured in a Dulbecco's modified Eagle's medium (DMEM) supplemented with 5% heat-inactivated FBS and 50 µg/mL of penicillin-streptomycin in a 5% CO2 incubator at 37° C. A 96-well plate dispensed with pre-cultured cells (2.5×10^4 cells/mL) was treated with compounds at various concentrations (10, 20, 50, and 100 μM) for 1 hour, and treated with LPS (200 ng/mL) and cultured for 24 hours. The supernatant was mixed with a Griess reagent and cultured at room temperature for 10 minutes. The nitrite concentration was determined using a sodium nitrite standard solution prepared in a cell culture medium. Absorbance was measured at a wavelength of 540 nm with a microplate reader. To evaluate the cell viability, the 96-well plate dispensed with cells (2.5×10^4 cells/mL) was treated with compounds at various concentrations (10, 20, 50, and 100 μM) for 1 hour, and treated with LPS (200 ng/mL) and cultured for 24 hours. An MTT solution (0.5 mg/mL) was added to each well and cultured at 37° C. for 4 hours. The supernatant was removed, and the formed formazan crystals were dissolved in DMSO. The absorbance was measured at 550 nm using a microplate reader. To determine the IC50 value of Compound 6, NO generation and MTT assay were performed in the same manner as described above, only with different concentrations (0.25, 0.5, and 1 μM) (Table 4). The experiment was repeated 3 times.

Data set [8] deals with BV-2 microglia. The data set is described as follows: Cell viability of BV-2 microglia (MTT assay). The data set is classed as cell-based. Conditions: LPS 200 ng/mL, 24 hours. How it is done: as §2, with “To determine the IC50 value of Compound 6, NO generation and MTT assay were performed in the same manner as described above, only with different concentrations (0.25, 0.5, and 1 μM) (Table 4). The experiment was repeated 3 times.” left out
(Tetrazolium assays rely on reduction of a dye to a coloured formazan, in cell work by metabolically active cells.)

Where [9] appears, read: Homo sapiens, NUGC-3, read-out: GI50, NUGC-3.
Where [10] appears, read: Homo sapiens, NCI-H23, 48 hours.
Where [11] appears, read: Homo sapiens, MDA-MB-231, 48 hours.

Read-outs that look alike come from different tables or passages of the source. Where only a bound is given, the exact number is not on record here.

In general, GI50 refers to the concentration that inhibits growth by half.

Consider `COc1cccc2c1C(=O)c1c(O)c3c(c(O)c1C2=O)C[C@@](O)(C(=O)CO)C[C@@H]3O[C@H]1C[C@H](N)[C@H](O)[C@H](C)O1` [ADR, Adriamycin, reference compound], for which the 50% growth inhibitory concentration (GI50) came out at 0.15 µM in data set [1] (setting [9]); 0.16 µM in data set [2] (setting [10]); 0.15 µM in data set [3] (setting [11]); 0.16 µM in data set [4] (Homo sapiens); 0.17 µM in data set [5] (Homo sapiens, HCT-15, 48 hours); 0.17 µM in data set [6] (Homo sapiens, ACHN).
For the compound `C[C@H](c1cccc2nc3c(C(=O)O)cccc3nc12)c1ccc(C(=O)O)c2nc3cccc([C@@H](C)O)c3nc12` [Compound 1, 4-((R)-1-(6-carboxyphenazin-1-yl)ethyl)-6-((R)-1-hydroxyethyl)phenazine-1-carboxylic acid], the GI50 was more than 10 µM in data set [1] (setting [9]); more than 10 µM in data set [2] (setting [10]); more than 10 µM in data set [3] (setting [11]); more than 10 µM in data set [4] (Homo sapiens); more than 10 µM in data set [5] (Homo sapiens, HCT-15, 48 hours); more than 10 µM in data set [6] (Homo sapiens, ACHN). Besides, the IC50 in data set [7] (Mus musculus) is 166 µM.
Turning to `C[C@@H](c1cccc2nc3c(C(=O)O)cccc3nc12)c1ccc(C(=O)O)c2nc3cccc([C@@H](C)O)c3nc12` [Compound 2, 4-((S)-1-(6-carboxyphenazin-1-yl)ethyl)-6-((R)-1-hydroxyethyl)phenazine-1-carboxylic acid], the concentration for 50% growth inhibition (GI50) is more than 10 µM in data set [1] (setting [9]); more than 10 µM in data set [2] (setting [10]); more than 10 µM in data set [3] (setting [11]); more than 10 µM in data set [4] (Homo sapiens); more than 10 µM in data set [5] (Homo sapiens, HCT-15, 48 hours); more than 10 µM in data set [6] (Homo sapiens, ACHN). In data set [7] (Mus musculus), the IC50 was 90.2 µM.
Take `CC(=O)c1cccc2nc3c(C(=O)O)ccc([C@H](C)c4cccc5nc6c(C(=O)O)cccc6nc45)c3nc12` [Compound 3, (R)-6-acetyl-4-(1-(6-carboxyphenazin-1-yl)ethyl)phenazine-1-carboxylic acid]: the GI50 is more than 10 µM in data set [1] (setting [9]); more than 10 µM in data set [2] (setting [10]); more than 10 µM in data set [3] (setting [11]); more than 10 µM in data set [4] (Homo sapiens); more than 10 µM in data set [5] (Homo sapiens, HCT-15, 48 hours); more than 10 µM in data set [6] (Homo sapiens, ACHN). Moreover, in data set [7] (Mus musculus), the IC50 stood at 34.7 µM.
In the case of `C[C@@H](c1cc(C(=O)O)c2nc3cccc([C@@H](C)O)c3nc2c1)c1cccc2nc3c(C(=O)O)cccc3nc12` [Compound 4, 3-((S)-1-(6-carboxyphenazin-1-yl)ethyl)-6-((R)-1-hydroxyethyl)phenazine-1-carboxylic acid], the GI50 is more than 10 µM in data set [1] (setting [9]); more than 10 µM in data set [2] (setting [10]); more than 10 µM in data set [3] (setting [11]); more than 10 µM in data set [4] (Homo sapiens); more than 10 µM in data set [5] (Homo sapiens, HCT-15, 48 hours); more than 10 µM in data set [6] (Homo sapiens, ACHN). Also, in data set [7] (Mus musculus), the IC50 is 126 µM.
`C[C@H](c1cc([C@@H](C)O)c2nc3cccc(C(=O)O)c3nc2c1)c1cccc2nc3c(C(=O)O)cccc3nc12` [Compound 5, 8-((R)-1-(6-carboxyphenazin-1-yl)ethyl)-6-((R)-1-hydroxyethyl)phenazine-1-carboxylic acid]: the GI50 in data set [1] (setting [9]) was more than 10 µM; in data set [2] (setting [10]), more than 10 µM; in data set [3] (setting [11]), more than 10 µM; in data set [4] (Homo sapiens) it was more than 10 µM; in data set [5] (Homo sapiens, HCT-15, 48 hours) it was more than 10 µM; in data set [6] (Homo sapiens, ACHN) it was more than 10 µM. For the same compound, in data set [7] (Mus musculus), the IC50 is 27.4 µM.
Take `C[C@@H](O)c1cccc2nc3c(C(=O)O[C@H](C)c4cccc5nc6c(C(=O)O)cccc6nc45)cccc3nc12` [Compound 6, 6-((R)-1-((6-((R)-1-hydroxyethyl)phenazine-1-carbonyl)oxy)ethyl)phenazine-1-carboxylic acid]: the GI50 was determined as 0.0077 µM in data set [1] (setting [9]); 0.0077 µM in data set [1] (Homo sapiens, NUGC-3, read-out: GI50 value, gastric cancer cells NUGC-3); 0.0096 µM in data set [2] (setting [10]); 0.0096 µM in data set [3] (setting [11]); 0.0096 µM in data set [4] (Homo sapiens); 0.0096 µM in data set [5] (Homo sapiens, HCT-15, 48 hours). This compound yielded a GI50 in data set [6] (Homo sapiens, ACHN) of 0.0135 µM. The “cytotoxicity stronger than Adriamycin, NUGC-3” value in data set [1] (ratio of GI50 versus Adriamycin) was determined as 19 times. For the same compound, in data set [7] (Mus musculus), the IC50 is 0.3 µM. Also, the “cytotoxicity in cell viability test” value in data set [8] is on record as “strong cytotoxicity up to a concentration of 1 μM”.
On to `CC(=O)c1cccc2nc3c(C(=O)O[C@H](C)c4cccc5nc6c(C(=O)O)cccc6nc45)cccc3nc12` [Compound 7, (R)-6-(1-((6-acetylphenazine-1-carbonyl)oxy)ethyl)phenazine-1-carboxylic acid], for which the 50% growth inhibitory concentration (GI50) in data set [1] (setting [9]) came out at 0.0349 µM; in data set [2] (setting [10]), 0.0426 µM; in data set [3] (setting [11]), 0.0523 µM; in data set [4] (Homo sapiens), 0.0465 µM; in data set [5] (Homo sapiens, HCT-15, 48 hours), 0.0601 µM; in data set [6] (Homo sapiens, ACHN) it was 0.0717 µM.
Regarding `C[C@@H](O)c1cccc2nc3c(C(=O)O)cccc3nc12` [Compound 8, (R)-Saphenic acid], the concentration for 50% growth inhibition (GI50) in data set [1] (read-out: GI50, NUGC-3) was more than 10 µM; in data set [2] (48 hours) it was more than 10 µM; in data set [3] (48 hours), more than 10 µM; in data set [4], more than 10 µM; in data set [5] (48 hours), more than 10 µM; in data set [6], more than 10 µM. For the same compound, the IC50 in data set [7] amounted to 16.3 µM.
`C[C@@H](OC(=O)c1ccccc1N)c1cccc2nc3c(C(=O)O)cccc3nc12` [Compound 9]: the GI50 is more than 10 µM in data set [1] (read-out: GI50, NUGC-3); more than 10 µM in data set [2] (48 hours); more than 10 µM in data set [3] (48 hours); more than 10 µM in data set [4]; more than 10 µM in data set [5] (48 hours); more than 10 µM in data set [6]. Besides, in data set [7], the IC50 stood at 23.5 µM.
